Assay results published in the supplement of paper PMC10627819.

Legend:
S. aureus DSM 20231 = experiment: Bliss interaction score (quartile over a dose matrix) (fitness difference); higher = more antagonism (negative = synergy)
Summary of the method: (§1)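 The Bliss score is observed minus expected fitness under the product model, reported as quartiles over technical, biological and donor/recipient replicates. Fitness is the OD595 at entry into stationary phase divided by the plate's robust no-drug mean and capped at 1. Single-drug fitness was inferred from combination data.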

B. subtilis 168 [1] = experiment: as above
Summary of the method: as §1

S. aureus Newman = experiment: as above
Summary of the method: as §1

S. pneumoniae D39V [2] = experiment: as above
Summary of the method: as §1

B. subtilis 168 [3] = experiment: fitness (endpoint OD595 vs no drug) (fraction); higher = more growth
Summary of the method: (§2)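 Plates with 384 wells were inoculated at OD595 0.01 using 30 µl of TSB, LB Lennox or CY, or 55 µl for S. pneumoniae. Incubation was at 37 °C, with OD595 measured every 30 min for 14 h. Fitness is the stationary-phase transition optical density over the robust mean of no-drug control wells, after first-reading background subtraction; it is capped at 1.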

S. pneumoniae D39V [4] = experiment: as above; conditions: main component drawn
Summary of the method: as §2
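Wherever Bliss interaction score (quartile over a dose matrix) is given: first quartile when negative (synergy) and third quartile when positive (antagonism).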

CNC(C)C1CCC(N)C(OC2C(N)CC(N)C(OC3OCC(C)(O)C(NC)C3O)C2O)O1 (stereo not given) [Gentamicin] + CCC(C)C1C(=O)NC(=C)C(=O)NC(C(=O)NC(CSCC(C(=O)N1)NC(=O)/C(=C/C)/NC(=O)C(C(C)CC)N)C(=O)NC2C(SCC(NC(=O)CNC(=O)C3CCCN3C2=O)C(=O)NC(CCCCN)C(=O)NC4C(SCC(NC(=O)CNC(=O)C(NC(=O)C(NC(=O)C(NC(=O)CNC4=O)C)CC(C)C)CCSC)C(=O)NC(CC(=O)N)C(=O)NC(CCSC)C(=O)NC(CCCCN)C(=O)NC5C(SCC6C(=O)NC(C(=O)NC(CSC(C(C(=O)N6)NC(=O)C(NC5=O)C)C)C(=O)NC(CO)C(=O)NC(C(C)CC)C(=O)NC(CC7=CN=CN7)C(=O)NC(C(C)C)C(=O)NC(=C)C(=O)NC(CCCCN)C(=O)O)CC8=CN=CN8)C)C)C)CC(C)C [Nisin]
main component drawn
Conditions | Bliss interaction score
B. subtilis 168 [1] | -0.0796
S. aureus DSM 20231 | 0.227
S. aureus Newman | 0.0431
S. pneumoniae D39V [2] | -0.0396

fitness, B. subtilis 168 [3], main component drawn
Conditions | first compound 0.0625 µg/mL | first compound 0.125 µg/mL | first compound 0.25 µg/mL
partner 0.5 µg/mL | 0.865 | 0.768 | 0.27
partner 1 µg/mL | 0.793 | – | 0.102
partner 2 µg/mL | – | 0.213 | 0.057

fitness, B. subtilis 168 [3], one replicate, main component drawn
Conditions | partner 1.25 µg/mL | partner 1.6 µg/mL | partner 2.5 µg/mL | partner 3.2 µg/mL | partner 4 µg/mL | partner 5 µg/mL | partner 6.4 µg/mL | partner 8 µg/mL | partner 16 µg/mL
first compound 0.0625 µg/mL | 0.861 | 0.703 | 0.037 | 0.0387 | 0.0303 | 0.0263 | 0.0574 | 0.0215 | 0.0053
first compound 0.125 µg/mL | 0.378 | 0.504 | 0.0311 | 0.0535 | 0.0234 | 0.0338 | 0.0847 | 0.0224 | 0.0101
first compound 0.25 µg/mL | 0.078 | 0.0505 | 0.0563 | 0.0642 | 0.0357 | 0.0313 | 0.0596 | 0.0124 | 0.007

fitness, S. pneumoniae D39V [4]
Conditions | partner 0.4275 µg/mL | partner 0.855 µg/mL | partner 1.6 µg/mL | partner 1.71 µg/mL | partner 3.2 µg/mL | partner 6.4 µg/mL
first compound 2 µg/mL | 0.957 | ≥ 1 | 0.0179 | 0.0948 | 0.0145 | 0.0183
first compound 4 µg/mL | 0.999 | ≥ 1 | 0.0111 | 0.07 | 0.0177 | 0.0081
first compound 8 µg/mL | 0.99 | 0.986 | 0.0051 | 0.0917 | 0.0325 | 0.0106

CNC(C)C1CCC(N)C(OC2C(N)CC(N)C(OC3OCC(C)(O)C(NC)C3O)C2O)O1 (stereo not given) [Gentamicin] + CN(C)C(=O)C(CCN1CCC(O)(c2ccc(Cl)cc2)CC1)(c1ccccc1)c1ccccc1 [Loperamide]
main component drawn
Conditions | Bliss interaction score
B. subtilis 168 [1] | -0.159
S. aureus DSM 20231 | 0.0997
S. aureus Newman | 0.0802
S. pneumoniae D39V [2] | 0.0792

Conditions | fitness
B. subtilis 168 [3], first compound 0.0625 µg/mL, partner 100 µg/mL, main component drawn | 0.0528
B. subtilis 168 [3], first compound 0.125 µg/mL, partner 25 µg/mL, main component drawn | 0.0373
B. subtilis 168 [3], first compound 0.125 µg/mL, partner 50 µg/mL, main component drawn | 0.0589
B. subtilis 168 [3], first compound 0.125 µg/mL, partner 100 µg/mL, main component drawn | 0.0432
B. subtilis 168 [3], first compound 0.25 µg/mL, partner 25 µg/mL, main component drawn | 0.0438
B. subtilis 168 [3], first compound 0.25 µg/mL, partner 50 µg/mL, main component drawn | 0.0483
B. subtilis 168 [3], first compound 0.25 µg/mL, partner 100 µg/mL, main component drawn | 0.0409
S. pneumoniae D39V [4], first compound 2 µg/mL, partner 68.57 µg/mL, one replicate | ≥ 1
S. pneumoniae D39V [4], first compound 4 µg/mL, partner 68.57 µg/mL, one replicate | 0.924
S. pneumoniae D39V [4], first compound 8 µg/mL, partner 68.57 µg/mL, one replicate | 0.937

fitness, S. pneumoniae D39V [4]
Conditions | partner 17.14 µg/mL | partner 20 µg/mL | partner 34.28 µg/mL | partner 40 µg/mL | partner 80 µg/mL
first compound 2 µg/mL | 0.968 | ≥ 1 | 0.967 | 0.994 | 0.193
first compound 4 µg/mL | ≥ 1 | ≥ 1 | 0.98 | ≥ 1 | –
first compound 8 µg/mL | 0.984 | ≥ 1 | 0.916 | ≥ 1 | –

CC1=C(C(=O)O)N2C(=O)[C@@H](NC(=O)[C@H](N)c3ccccc3)[C@H]2SC1 [Cephalexin] + CO[C@@H]1[C@@H](OC(N)=O)[C@@H](O)[C@H](Oc2ccc3c(O)c(NC(=O)c4ccc(O)c(CC=C(C)C)c4)c(=O)oc3c2C)OC1(C)C [Novobiocin]
Conditions | Bliss interaction score
B. subtilis 168 [1] | 0.0738
S. aureus DSM 20231 | 0.0648
S. aureus Newman | 0.0794
S. pneumoniae D39V [2] | -0.0986

fitness, B. subtilis 168 [3]
Conditions | first compound 0.125 µg/mL | first compound 0.25 µg/mL | first compound 0.5 µg/mL
partner 0.0125 µg/mL | 0.97 | 0.978 | 0.98
partner 0.025 µg/mL | 0.918 | 0.936 | 0.93
partner 0.05 µg/mL | 0.984 | 0.972 | 0.97

fitness, B. subtilis 168 [3], one replicate
Conditions | first compound 0.25 µg/mL | first compound 0.5 µg/mL | first compound 1 µg/mL
partner 0.125 µg/mL | 0.95 | 0.839 | 0.946
partner 0.25 µg/mL | 0.857 | 0.866 | 0.926
partner 0.5 µg/mL | 0.603 | 0.49 | 0.593
